“And” between values parts separate entries of the source, which are not always exact repeats. Identical values can stand only once. Counter-ions that a name gives are not always drawn. Like-named read-outs stand apart in the source and are kept apart here.
Experiments:
human plasma [1] = type: biochemical
human plasma [2] = type: biochemical; details: for PTT(seconds) Exp. 2 A: Active Agent 0.5/ml, test sequences A and B, control 50.5 (A), 44.5 (B)
[3] = coded agents 0.5mg/ml, […], control 12.92
[4] = 0.5 mg/ml, two different days, control 42.6 / 42.10
[5] = coded agents 0.5mg/ml, […], control 43.38
[6] = amine bisulfites, control plasma 12.8 / 13.1
[7] = amine bisulfites, control plasma 13.1 / 13.0
[8] = amine bisulfites, control plasma 37.5 / 38.2
[9] = amine bisulfites, control plasma 37.8 / 39.2
[10] = amine hydrochlorides, control plasma 12.5
[11] = amine hydrochlorides, control plasma 13.0
[12] = amine hydrochlorides, control plasma 13.5
[13] = amine hydrochlorides, control plasma 31.2
[14] = amine hydrochlorides, control plasma 31.3
[15] = in vitro, concentration not given
[16] = 0.5 mg/ml, two different days, control 13.40

## C[N+](C)(C)C [Tetramethyl Ammonium Bromide, reference compound]
Human plasma [1]
  PT sec.: 12.5 s
Human plasma [1]; in vitro, 0.5 mg/ml
  PT (effect in words): little or no effect
Human plasma [2]; 0.5 mg/ml, human plasma, control 38.1
  PTT sec: 38.5 s
Human plasma [2]; in vitro, 0.5 mg/ml
  PTT (effect in words): little or no effect

## O=S(O)CO [SO2, Sodium formaldehyde sulfoxalate, reference compound]
Human plasma [1]
  PT: 13.8 s
Human plasma [1]; [3]
  PT: 14.94 s
Human plasma [2]; [4]
  PTT sec: 45.1 (53.8) sec
Human plasma [2]; [5]
  PTT: 49.22 s

## CN1CCOCC1 [4-METHYL MORPHOLINE]
Human plasma [1]
  PT REPLICATIONS 1: 21.3
  PT REPLICATIONS 2: 21.5
  PT REPLICATIONS 3: 20.4
Human plasma [2]
  PTT REPLICATIONS 1: 63.5
  PTT REPLICATIONS 2: 61.3
  PTT REPLICATIONS 3: 60.6

## benzaldhyde [reference compound]
Human plasma [1]; in vitro, 0.5 mg/ml
  PT (effect in words): minimal effect
Human plasma [2]; in vitro, 0.5 mg/ml
  PTT (effect in words): minimal effect

## Cl.c1ccncc1 [PYRIDINE HYDROCHLORIDE (CRYSTALS), PYRIDINE HYDROCHLORIDE, reference compound]
Human plasma [1]; HYDROCHLORIDE
  PT 1: 12.9
  PT 2: 12.8
  PT 3: 14.0
Human plasma [2]; HYDROCHLORIDE
  PTT 1: 31.3
  PTT 2: 31.1
  PTT 3: 32.2

## cyclohexane [reference compound]
Human plasma [1]; in vitro, 0.5 mg/ml
  PT (effect in words): minimal effect
Human plasma [2]; in vitro, 0.5 mg/ml
  PTT (effect in words): minimal effect

## CNC1CCCCC1 [N-METHYL CYCLOHEXYL AMINE]
Human plasma [1]; [6]
  PT REPLICATIONS 1: 20.5
  PT REPLICATIONS 2: 20.3
Human plasma [1]; [7]
  PT REPLICATIONS 3: 20.4
Human plasma [2]
  PTT REPLICATIONS 2: 61.8
Human plasma [2]; [8]
  PTT REPLICATIONS 1: 60.6
Human plasma [2]; [9]
  PTT REPLICATIONS 3: 61.6

## C=CCNCC=C.Cl [DIALLYL AMINE HYDROCHLORIDE, reference compound]
Human plasma [1]; [10]
  PT 2: 13.1
Human plasma [1]; [11]
  PT 1: 12.8
Human plasma [1]; [12]
  PT 3: 13.5
Human plasma [2]
  PTT 1: 30.5
Human plasma [2]; [13]
  PTT 3: 30.4
Human plasma [2]; [14]
  PTT 2: 30.7

## c1ccncc1 [PYRIDINE]
Human plasma [1]
  PT REPLICATIONS 1: 29.3
  PT REPLICATIONS 2: 27.8
  PT REPLICATIONS 3: 27.2
Human plasma [2]
  PTT REPLICATIONS 1: 80.0
  PTT REPLICATIONS 2: 71.1
  PTT REPLICATIONS 3: 59.3

## C=CCNCC=C [DIALLYL AMINE]
Human plasma [1]; [6]
  PT REPLICATIONS 1: 13.4
  PT REPLICATIONS 2: 13.7
Human plasma [1]; [7]
  PT REPLICATIONS 3: 13.8
Human plasma [1]; [15]
  PT (effect in words): low activity
Human plasma [2]
  PTT REPLICATIONS 2: 39.6
Human plasma [2]; [8]
  PTT REPLICATIONS 1: 38.8
Human plasma [2]; [9]
  PTT REPLICATIONS 3: 39.1
Human plasma [2]; [15]
  PTT (effect in words): low activity

## Cl.c1ccncc1 [PYRIDINE HYDROCHLORIDE (POWDER), PYRIDINE HYDROCHLORIDE, reference compound]
Human plasma [1]; HYDROCHLORIDE
  PT 1: 12.6
  PT 2: 12.5
  PT 3: 13.8
Human plasma [2]; HYDROCHLORIDE
  PTT 1: 30.5
  PTT 2: 30.8
  PTT 3: 31.1

## O=S([O-])S(=O)(=O)[O-].[Na+].[Na+] [Sodium Metabisulfite]
Human plasma [1]
  PT: 19.56 s
  PT(seconds) Exp. 1 A: 18.5 s
  PT(seconds) Exp. 2 A: 21.9 s
Human plasma [2]
  PTT(seconds) Exp. 1 A: 76.9 s
Human plasma [2]; [4]
  PTT: 77.75 s

## CC(C)(C)N [TERT-BUTYL AMINE]
Human plasma [1]; [6]
  PT REPLICATIONS 1: 21.7
  PT REPLICATIONS 2: 21.8
Human plasma [1]; [7]
  PT REPLICATIONS 3: 21.8
Human plasma [2]
  PTT REPLICATIONS 2: 68.9
Human plasma [2]; [8]
  PTT REPLICATIONS 1: 68.2
Human plasma [2]; [9]
  PTT REPLICATIONS 3: 69.0

## Sodium thiosulfate [SI6, reference compound]
Human plasma [1]
  PT: 13.5 s
Human plasma [2]
  PTT: 46.2 s

## O=S([O-])S(=O)(=O)[O-].[K+].[K+] [Potassium Metabisulfite]
Human plasma [1]
  PT: 18.76 s
  PT(seconds) Exp. 1 A: 18.3 s and 20.4 s
  PT(seconds) Exp. 2 A: 22.0 s
Human plasma [1]; [3]
  PT: 19.34 s
Human plasma [2]
  PTT(seconds) Exp. 1 A: 77.6 s and 91.6 s
  PTT(seconds) Exp. 2 A: 111.3 s and 105.2 s
Human plasma [2]; [4]
  PTT: 80.60 s
Human plasma [2]; [5]
  PTT: 83.84 s

## 2-octanome [Example 2-octanome, reference compound]
Human plasma [1]; in vitro, 0.5 mg/ml
  PT (effect in words): minimal effect
Human plasma [2]; in vitro, 0.5 mg/ml
  PTT (effect in words): minimal effect

## Na Sulfide [reference compound]
Human plasma [1]; [16]
  PT: 21.12 s
Human plasma [2]; [4]
  PTT: 78.50 s

## CCN(CC)C(=S)S [SO4, Sodium diethyl dithiocarbamate, reference compound]
Human plasma [1]
  PT: 13.6 s
Human plasma [1]; [3]
  PT: 14.02 s
Human plasma [2]; [4]
  PTT: 48.1 s
Human plasma [2]; coded agents 0.5mg/ml, mean values of 5 replications, control 43.38
  PTT: 49.60 s

## Cl.NC1CCCCC1 [CYCLOHEXYL AMINE HYDROCHLORIDE, reference compound]
Human plasma [1]; [10]
  PT 2: 13.6
Human plasma [1]; [11]
  PT 1: 13.8
Human plasma [1]; [12]
  PT 3: 13.5
Human plasma [2]
  PTT 1: 32.5
Human plasma [2]; [13]
  PTT 3: 34.3
Human plasma [2]; [14]
  PTT 2: 32.7

## Nc1ccccc1 [ANILINE]
Human plasma [1]; [6]
  PT REPLICATIONS 1: 16.0
  PT REPLICATIONS 2: 16.9
Human plasma [1]; [7]
  PT REPLICATIONS 3: 16.0
Human plasma [2]
  PTT REPLICATIONS 2: 44.9
Human plasma [2]; [8]
  PTT REPLICATIONS 1: 45.4
Human plasma [2]; [9]
  PTT REPLICATIONS 3: 42.9

## O=C(O)CC(S)C(=O)O (stereo not drawn) [Example A2, Mercaptosuccinic acid, reference compound]
Human plasma [1]
  PT: 14.7 s
Human plasma [1]; [3]
  PT: 14.60 s
Human plasma [2]; [4]
  PTT: 52.6 s
Human plasma [2]; [5]
  PTT: 48.70 s

## Na-phosphite [reference compound]
Human plasma [1]; [16]
  PT: 12.9 s

## CCN(CC)CC.Cl [TRIETHYLAMINE HYDROCHLORIDE, reference compound]
Human plasma [1]
  PT 1: 12.8
  PT 2: 12.7
  PT 3: 13.5
Human plasma [2]
  PTT 1: 32.0
  PTT 2: 31.5
  PTT 3: 34.5

## O=C(O)/C(O)=C(/O)C(=O)O [Example A3, Dihydroxymaleic acid 2 H2O, reference compound]
Human plasma [1]; [3]
  PT: 14.95 s
Human plasma [2]; [5]
  PTT: 53.00 s

## Na2SO4 [reference compound]
Human plasma [1]; [16]
  PT: 13.6 s
Human plasma [2]; [4]
  PTT: 44.2 s

## C=CCN [ALLYL AMINE HYDROCHLORIDE, reference compound]
Human plasma [1]
  PT 3: 14.4
Human plasma [1]; [10]
  PT 2: 13.2
Human plasma [1]; [11]
  PT 1: 13.2
Human plasma [2]
  PTT 1: 31.6
Human plasma [2]; [13]
  PTT 3: 32.4
Human plasma [2]; [14]
  PTT 2: 30.5

## CCCC[N+](CCCC)(CCCC)CCCC.[Br-] [Tetrabutyl Ammonium Bromide, reference compound]
Human plasma [1]
  PT (effect in words): little or no effect
  PT sec.: 12.4 s
Human plasma [2]
  PTT (effect in words): little or no effect
  PTT sec: 38.3 s

## CN(C)C1CCCCC1 [N,N-DIMETHYL CYCLOHEXYL AMINE]
Human plasma [1]; [6]
  PT REPLICATIONS 1: 18.9
  PT REPLICATIONS 2: 20.4
Human plasma [1]; [7]
  PT REPLICATIONS 3: 19.8
Human plasma [2]
  PTT REPLICATIONS 2: 62.1
Human plasma [2]; [8]
  PTT REPLICATIONS 1: 60.1
Human plasma [2]; [9]
  PTT REPLICATIONS 3: 58.9

## Sodium Sulfite
Human plasma [1]
  PT: 16.38 s
  PT(seconds) Exp. 1 A: 16.8 s and 16.2 s
  PT(seconds) Exp. 2 A: 17.7 s
Human plasma [1]; [3]
  PT: 16.14 s
Human plasma [2]
  PTT(seconds) Exp. 1 A: 74.8 s and 66.1 s
  PTT(seconds) Exp. 2 A: 82.1 s and 80.7 s
Human plasma [2]; [4]
  PTT: 66.53 s
Human plasma [2]; [5]
  PTT: 64.62 s

## CC(C)=O [acetone, reference compound]
Human plasma [1]; in vitro, 0.5 mg/ml
  PT (effect in words): minimal effect
Human plasma [2]; in vitro, 0.5 mg/ml
  PTT (effect in words): minimal effect

## C1COCCN1 [MORPHOLINE]
Human plasma [1]
  PT REPLICATIONS 1: 19.3
  PT REPLICATIONS 2: 21.0
  PT REPLICATIONS 3: 17.5
Human plasma [2]
  PTT REPLICATIONS 1: 66.8
  PTT REPLICATIONS 2: 61.8
  PTT REPLICATIONS 3: 51.7

## NCCO [ETHANOL AMINE]
Human plasma [1]; [6]
  PT REPLICATIONS 1: 19.3
  PT REPLICATIONS 2: 20.5
Human plasma [1]; [7]
  PT REPLICATIONS 3: 18.4
Human plasma [2]
  PTT REPLICATIONS 2: 66.1
Human plasma [2]; [8]
  PTT REPLICATIONS 1: 65.3
Human plasma [2]; [9]
  PTT REPLICATIONS 3: 61.1

## C=CCN [ALLYL AMINE]
Human plasma [1]; [6]
  PT REPLICATIONS 1: 16.1
  PT REPLICATIONS 2: 16.0
Human plasma [1]; [7]
  PT REPLICATIONS 3: 15.6
Human plasma [2]
  PTT REPLICATIONS 2: 46.9
Human plasma [2]; [8]
  PTT REPLICATIONS 1: 47.1
Human plasma [2]; [9]
  PTT REPLICATIONS 3: 44.9

Source: patent publication EP0043274A2, “Antithrombotic treatment” (priority 1980, dated 1982)
